Results published in US8883792B2, “Substituted isoquinoline derivative” (D. Western Therapeutics Institute, Inc., priority 2010, dated 2014).
Structures can show the parent of a compound that is named as a salt.

System: rabbits (New Zealand White)
Test: Ocular hypotensive effect in rabbits
Format: in vivo, rabbit
Conditions: male New Zealand White rabbits, 0.04 mL eye drop, concentration of 1% (w/v) or lower, maximum ocular hypotensive rate vs vehicle-treated contralateral eye
Experimental: The compound of the present invention was administered to rabbits (New Zealand White, sex: male, 3 to 6 per group) and evaluated for its ocular hypotensive effect.
Each test compound was dissolved in a vehicle 1 (1.04 g of sodium dihydrogen phosphate dihydrate and 0.5 g of sodium chloride dissolved in purified water and then adjusted to pH 7.0 with sodium hydroxide to make the total amount to 100 mL) or a vehicle 2 (2% (w/v) aqueous boric acid solution) to prepare a test compound solution with a predetermined concentration.
The intraocular pressures of the rabbits were measured using Tiolat TonoVet handheld tonometer immediately before administration of test compound. The test compound solution and the vehicle were dropped at a volume of 0.04 mL to one eye and the contralateral eye, respectively, and the intraocular pressures were measured over time in the same way as above. The rate of the intraocular pressure of the eye receiving the test compound solution to that of the eye receiving the vehicle was calculated as an ocular hypotensive rate.

SMILES	Ocular hypotensive activity
C[C@H](CNCCc1ccccc1Cl)NS(=O)(=O)c1ccc2cnccc2c1 [Example 38, (R)—N-{1-(2-chlorophenethylamino)propan-2-yl}isoquinoline-6-sulfonamide dihydrochloride]	++ (maximum ocular hypotensive rate of 15% or more)
C[C@H](CNCCc1ccc(Cl)cc1)NS(=O)(=O)c1ccc2cnccc2c1 [Example 39, (R)—N-{1-(4-chlorophenethylamino)propan-2-yl}isoquinoline-6-sulfonamide dihydrochloride]	++ (maximum ocular hypotensive rate of 15% or more)
C[C@H](CNCCc1cccs1)NS(=O)(=O)c1ccc2cnccc2c1.Cl [Example 40, (R)—N-[1-{2-(thiophen-2-yl)ethylamino}propan-2-yl]isoquinoline-6-sulfonamide hydrochloride]	++ (maximum ocular hypotensive rate of 15% or more)
C[C@H](CNCCc1ccsc1)NS(=O)(=O)c1ccc2cnccc2c1.Cl [Example 41, (R)—N-[1-{2-(thiophen-3-yl)ethylamino}propan-2-yl]isoquinoline-6-sulfonamide hydrochloride]	++ (maximum ocular hypotensive rate of 15% or more)
C[C@H](CNCCc1ccncc1)NS(=O)(=O)c1ccc2cnccc2c1 [Example 42, (R)—N-[1-{2-(pyridin-4-yl)ethylamino}propan-2-yl]isoquinoline-6-sulfonamide trihydrochloride]	+ (maximum ocular hypotensive rate of 5% or more and less than 15%)
C[C@H](CNC/C=C/c1ccc(Br)cc1)NS(=O)(=O)c1ccc2cnccc2c1 [Example 43, (R, E)-N-[1-{3-(4-bromophenyl)allylamino}propan-2-yl]isoquinoline-6-sulfonamide dihydrochloride]	++ (maximum ocular hypotensive rate of 15% or more)
C[C@H](CNC/C=C/c1ccccc1)NS(=O)(=O)c1ccc2cnccc2c1 [Example 44, (R, E)-N-{1-(cinnamylamino)propan-2-yl}isoquinoline-6-sulfonamide dihydrochloride]	+ (maximum ocular hypotensive rate of 5% or more and less than 15%)
C[C@H](CNCCOc1ccccc1)NS(=O)(=O)c1ccc2cnccc2c1 [Example 45, (R)—N-{1-(2-phenoxyethylamino)propan-2-yl}isoquinoline-6-sulfonamide dihydrochloride]	++ (maximum ocular hypotensive rate of 15% or more)
C[C@H](CNCCc1cccc2ccccc12)NS(=O)(=O)c1ccc2cnccc2c1.Cl [Example 46]	++ (maximum ocular hypotensive rate of 15% or more)
C#CCNC[C@@H](C)NS(=O)(=O)c1ccc2cnccc2c1 [Example 47, (R)—N-{1-(prop-2-yn-1-ylamino)propan-2-yl}isoquinoline-6-sulfonamide dihydrochloride]	++ (maximum ocular hypotensive rate of 15% or more)
CO[C@H](CNC[C@@H](C)NS(=O)(=O)c1ccc2cnccc2c1)c1ccccc1.Cl [Example 48, N—[(R)-1-{(S)-2-methoxy-2-phenylethylamino}propan-2-yl]isoquinoline-6-sulfonamide hydrochloride]	++ (maximum ocular hypotensive rate of 15% or more)
C[C@H](CNCCc1cccnc1)NS(=O)(=O)c1ccc2cnccc2c1.Cl [Example 49, (R)—N-[1-{2-(pyridin-3-yl)ethylamino}propan-2-yl]isoquinoline-6-sulfonamide hydrochloride]	++ (maximum ocular hypotensive rate of 15% or more)
C[C@H](CNCC[C@@H](O)c1ccccc1)NS(=O)(=O)c1ccc2cnccc2c1.Cl [Example 50, N—[(R)-1-{(R)-3-hydroxy-3-phenylpropylamino}propan-2-yl]isoquinoline-6-sulfonamide hydrochloride]	+ (maximum ocular hypotensive rate of 5% or more and less than 15%)
C[C@H](CNCCc1cccc(F)c1)NS(=O)(=O)c1ccc2cnccc2c1.Cl [Example 52, (R)—N-{1-(3-fluorophenethylamino)propan-2-yl}isoquinoline-6-sulfonamide hydrochloride]	++ (maximum ocular hypotensive rate of 15% or more)
C[C@H](CNCCc1cccc(Cl)c1)NS(=O)(=O)c1ccc2cnccc2c1 [Example 54, (R)—N-{1-(3-chlorophenethylamino)propan-2-yl}isoquinoline-6-sulfonamide hydrochloride]	++ (maximum ocular hypotensive rate of 15% or more)
C[C@H](CNCCc1ccc(Br)cc1)NS(=O)(=O)c1ccc2cnccc2c1.Cl [Example 55, (R)—N-{1-(4-bromophenethylamino)propan-2-yl}isoquinoline-6-sulfonamide hydrochloride]	++ (maximum ocular hypotensive rate of 15% or more)

SMILES	Ocular hypotensive activity
Cc1ccccc1CCNC[C@@H](C)NS(=O)(=O)c1ccc2cnccc2c1.Cl [Example 56, (R)—N-{1-(2-methylphenethylamino)propan-2-yl}isoquinoline-6-sulfonamide hydrochloride]	++ (maximum ocular hypotensive rate of 15% or more)
Cc1cccc(CCNC[C@@H](C)NS(=O)(=O)c2ccc3cnccc3c2)c1.Cl [Example 57, (R)—N-{1-(3-methylphenethylamino)propan-2-yl}isoquinoline-6-sulfonamide hydrochloride]	++ (maximum ocular hypotensive rate of 15% or more)
C[C@H](CNCCc1ccc([N+](=O)[O-])cc1)NS(=O)(=O)c1ccc2cnccc2c1.Cl [Example 59, (R)—N-{1-(4-nitrophenethylamino)propan-2-yl}isoquinoline-6-sulfonamide hydrochloride]	++ (maximum ocular hypotensive rate of 15% or more)
C[C@H](CNCCc1ccc(C(F)(F)F)cc1)NS(=O)(=O)c1ccc2cnccc2c1.Cl [Example 60, (R)—N-{1-(4-trifluoromethylphenethylamino)propan-2-yl}isoquinoline-6-sulfonamide hydrochloride]	++ (maximum ocular hypotensive rate of 15% or more)
C[C@H](CNC1CCCCC1)NS(=O)(=O)c1ccc2cnccc2c1.Cl [Example 61, (R)—N-{1-(cyclohexylamino)propan-2-yl}isoquinoline-6-sulfonamide hydrochloride]	++ (maximum ocular hypotensive rate of 15% or more)
C[C@H](CNC1Cc2ccccc2C1)NS(=O)(=O)c1ccc2cnccc2c1.Cl [Example 62, (R)—N-{1-(2,3-dihydro-1H-inden-2-ylamino)propan-2-yl}isoquinoline-6-sulfonamide hydrochloride]	++ (maximum ocular hypotensive rate of 15% or more)
C[C@H](CNCCc1c[nH]c2ccc(Cl)cc12)NS(=O)(=O)c1ccc2cnccc2c1.Cl [Example 63, (R)—N-[1-{2-(5-chloro-1H-indol-3-yl)ethylamino}propan-2-yl]isoquinoline-6-sulfonamide hydrochloride]	+ (maximum ocular hypotensive rate of 5% or more and less than 15%)
C[C@H](CNCCc1cn(C)c2ccccc12)NS(=O)(=O)c1ccc2cnccc2c1.Cl [Example 64, (R)—N-[1-{2-(1-methyl-1H-indol-3-yl)ethylamino}propan-2-yl]isoquinoline-6-sulfonamide hydrochloride]	++ (maximum ocular hypotensive rate of 15% or more)
C[C@H](CNCCc1ccnc2ccccc12)NS(=O)(=O)c1ccc2cnccc2c1.Cl [Example 65]	+ (maximum ocular hypotensive rate of 5% or more and less than 15%)
C[C@H](CNCCc1ccco1)NS(=O)(=O)c1ccc2cnccc2c1.Cl [Example 66, (R)—N-[1-{2-(furan-2-yl)ethylamino}propan-2-yl]isoquinoline-6-sulfonamide hydrochloride]	++ (maximum ocular hypotensive rate of 15% or more)
C[C@H](CNCCc1ccoc1)NS(=O)(=O)c1ccc2cnccc2c1.Cl [Example 67, (R)—N-[1-{2-(furan-3-yl)ethylamino}propan-2-yl]isoquinoline-6-sulfonamide hydrochloride]	++ (maximum ocular hypotensive rate of 15% or more)
C[C@H](CNCCn1cncn1)NS(=O)(=O)c1ccc2cnccc2c1.Cl [Example 68, (R)—N-[1-{2-(1H-1,2,4-triazol-1-yl)ethylamino}propan-2-yl]isoquinoline-6-sulfonamide hydrochloride]	+ (maximum ocular hypotensive rate of 5% or more and less than 15%)
C[C@H](CNCCc1ccc(N)cc1)NS(=O)(=O)c1ccc2cnccc2c1.Cl.Cl.Cl [Example 69, (R)—N-{1-(4-aminophenethylamino)propan-2-yl}isoquinoline-6-sulfonamide trihydrochloride]	++ (maximum ocular hypotensive rate of 15% or more)
C[C@H](CNCCc1ccc(N(C)C)cc1)NS(=O)(=O)c1ccc2cnccc2c1.Cl [Example 71, (R)—N-{1-(4-dimethylaminophenethylamino)propan-2-yl}isoquinoline-6-sulfonamide hydrochloride]	++ (maximum ocular hypotensive rate of 15% or more)
C[C@H](CNCCc1ccc(NC(N)=O)cc1)NS(=O)(=O)c1ccc2cnccc2c1.Cl [Example 72, (R)—N-{1-(4-ureidophenethylamino)propan-2-yl}isoquinoline-6-sulfonamide hydrochloride]	+ (maximum ocular hypotensive rate of 5% or more and less than 15%)
